ChEMBL document CHEMBL5518235, “Identification of Novel Series of Potent and Selective Relaxin Family Peptide Receptor 1 (RXFP1) Agonists” (J Med Chem, 2024)
In brackets after ≈: the same amount, converted by molar mass. Blank lines part the entries; values can stand above or below the molecule they belong to. Activity calls are given as the source filed them. The rule behind the calls is not given here.

How the values were obtained:
[1] = Cytotoxicity against human HepG2 cells cultured as C3a spheroids assessed as reduction in cell viability; format: toxicity, cell-based
[2] = target: T1, Relaxin receptor 1 (Homo sapiens) (UniProt Q9HBX9); experiment: Agonist activity at human RXFP1 expressed in T-Rex-CHO-K1 cells assessed as stimulation of cAMP production by measuring maximal efficacy at 50 uM incubated for 45 mins by HTRF assay relative to control; format: functional, cell-based; conditions: filed as agonist
T1 sequence (whole entry): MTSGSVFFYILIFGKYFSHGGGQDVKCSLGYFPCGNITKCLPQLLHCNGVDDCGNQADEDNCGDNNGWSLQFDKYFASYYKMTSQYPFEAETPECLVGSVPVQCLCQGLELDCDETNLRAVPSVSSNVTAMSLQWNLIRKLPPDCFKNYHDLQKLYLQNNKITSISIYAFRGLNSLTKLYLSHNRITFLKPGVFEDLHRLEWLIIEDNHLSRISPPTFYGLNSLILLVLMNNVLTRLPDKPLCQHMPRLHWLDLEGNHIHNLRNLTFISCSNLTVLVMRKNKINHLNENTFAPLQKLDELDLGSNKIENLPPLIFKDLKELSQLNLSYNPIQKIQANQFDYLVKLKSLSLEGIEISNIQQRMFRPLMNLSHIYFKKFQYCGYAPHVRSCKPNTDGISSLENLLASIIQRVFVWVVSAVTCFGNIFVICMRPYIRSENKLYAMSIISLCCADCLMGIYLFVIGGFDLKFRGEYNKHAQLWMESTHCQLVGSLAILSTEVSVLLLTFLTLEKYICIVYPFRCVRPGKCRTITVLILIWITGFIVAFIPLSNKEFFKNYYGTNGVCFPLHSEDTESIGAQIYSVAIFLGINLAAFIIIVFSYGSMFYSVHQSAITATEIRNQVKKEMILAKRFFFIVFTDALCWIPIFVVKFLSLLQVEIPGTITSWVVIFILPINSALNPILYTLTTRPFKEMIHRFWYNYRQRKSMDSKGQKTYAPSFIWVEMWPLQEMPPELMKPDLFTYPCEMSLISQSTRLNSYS

[3] = Metabolic stability in Han Wistar rat hepatocytes assessed as intrinsic clearance measured per 10^6 cells at 1 uM after 120 mins by LC-MS/MS analysis; format: ADME, cell-based, Hepatocyte; conditions: read-out: CLH
[4] = Half-life in Han Wistar rat at 0.73 micromol/kg, iv by LC-MS/MS analysis; format: ADME, organism-based; conditions: in vivo, dose 0.73 µmol/kg
Bile salt export pump = Bile salt export pump (Homo sapiens, UniProt O95342); experiment: Inhibition of BSEP (unknown origin) by membrane vesicle assay; format: toxicity
Bile salt export pump, sequence (O95342 whole entry): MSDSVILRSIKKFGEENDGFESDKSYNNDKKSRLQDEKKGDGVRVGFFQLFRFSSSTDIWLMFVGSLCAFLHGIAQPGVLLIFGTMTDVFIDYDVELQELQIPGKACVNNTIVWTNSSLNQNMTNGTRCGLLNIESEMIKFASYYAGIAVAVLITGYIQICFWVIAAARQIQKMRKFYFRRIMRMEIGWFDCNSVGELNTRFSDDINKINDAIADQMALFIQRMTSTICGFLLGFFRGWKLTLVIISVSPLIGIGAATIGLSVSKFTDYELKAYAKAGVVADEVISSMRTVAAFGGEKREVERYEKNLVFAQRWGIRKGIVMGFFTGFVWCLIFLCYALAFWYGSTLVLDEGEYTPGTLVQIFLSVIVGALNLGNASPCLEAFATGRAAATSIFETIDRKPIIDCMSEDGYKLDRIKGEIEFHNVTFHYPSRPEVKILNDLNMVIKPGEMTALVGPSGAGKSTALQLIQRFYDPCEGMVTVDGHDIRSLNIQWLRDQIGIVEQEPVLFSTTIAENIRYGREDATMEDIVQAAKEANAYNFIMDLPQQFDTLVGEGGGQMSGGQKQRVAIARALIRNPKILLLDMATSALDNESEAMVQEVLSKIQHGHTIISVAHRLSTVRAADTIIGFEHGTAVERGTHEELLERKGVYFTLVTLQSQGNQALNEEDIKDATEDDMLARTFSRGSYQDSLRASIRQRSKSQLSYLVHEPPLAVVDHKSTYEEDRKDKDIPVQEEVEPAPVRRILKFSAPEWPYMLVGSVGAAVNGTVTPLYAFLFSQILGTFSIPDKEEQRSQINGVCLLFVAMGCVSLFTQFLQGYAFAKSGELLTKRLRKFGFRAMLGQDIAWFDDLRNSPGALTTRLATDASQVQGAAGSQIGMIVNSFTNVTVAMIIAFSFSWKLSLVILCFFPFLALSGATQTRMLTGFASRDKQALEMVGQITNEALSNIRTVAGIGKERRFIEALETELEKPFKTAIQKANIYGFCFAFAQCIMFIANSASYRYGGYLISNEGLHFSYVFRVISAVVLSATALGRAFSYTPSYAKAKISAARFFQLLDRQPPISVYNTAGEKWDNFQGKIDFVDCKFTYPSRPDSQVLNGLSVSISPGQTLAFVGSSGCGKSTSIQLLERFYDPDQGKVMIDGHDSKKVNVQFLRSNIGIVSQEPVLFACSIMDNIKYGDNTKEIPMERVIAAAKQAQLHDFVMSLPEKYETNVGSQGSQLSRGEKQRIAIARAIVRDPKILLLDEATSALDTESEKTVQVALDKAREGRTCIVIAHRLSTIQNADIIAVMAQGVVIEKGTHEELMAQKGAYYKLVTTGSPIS

[5] = Cytotoxicity against human HepG2 cells cultured under galactose condition assessed as reduction in cell viability; format: toxicity, cell-based
[6] = target: Voltage-gated inwardly rectifying potassium channel KCNH2 (Homo sapiens, UniProt Q12809); experiment: Inhibition of human ERG by automated electrophysiology recording; format: toxicity
Voltage-gated inwardly rectifying potassium channel KCNH2, sequence (Q12809 whole entry, the tested form may be a part): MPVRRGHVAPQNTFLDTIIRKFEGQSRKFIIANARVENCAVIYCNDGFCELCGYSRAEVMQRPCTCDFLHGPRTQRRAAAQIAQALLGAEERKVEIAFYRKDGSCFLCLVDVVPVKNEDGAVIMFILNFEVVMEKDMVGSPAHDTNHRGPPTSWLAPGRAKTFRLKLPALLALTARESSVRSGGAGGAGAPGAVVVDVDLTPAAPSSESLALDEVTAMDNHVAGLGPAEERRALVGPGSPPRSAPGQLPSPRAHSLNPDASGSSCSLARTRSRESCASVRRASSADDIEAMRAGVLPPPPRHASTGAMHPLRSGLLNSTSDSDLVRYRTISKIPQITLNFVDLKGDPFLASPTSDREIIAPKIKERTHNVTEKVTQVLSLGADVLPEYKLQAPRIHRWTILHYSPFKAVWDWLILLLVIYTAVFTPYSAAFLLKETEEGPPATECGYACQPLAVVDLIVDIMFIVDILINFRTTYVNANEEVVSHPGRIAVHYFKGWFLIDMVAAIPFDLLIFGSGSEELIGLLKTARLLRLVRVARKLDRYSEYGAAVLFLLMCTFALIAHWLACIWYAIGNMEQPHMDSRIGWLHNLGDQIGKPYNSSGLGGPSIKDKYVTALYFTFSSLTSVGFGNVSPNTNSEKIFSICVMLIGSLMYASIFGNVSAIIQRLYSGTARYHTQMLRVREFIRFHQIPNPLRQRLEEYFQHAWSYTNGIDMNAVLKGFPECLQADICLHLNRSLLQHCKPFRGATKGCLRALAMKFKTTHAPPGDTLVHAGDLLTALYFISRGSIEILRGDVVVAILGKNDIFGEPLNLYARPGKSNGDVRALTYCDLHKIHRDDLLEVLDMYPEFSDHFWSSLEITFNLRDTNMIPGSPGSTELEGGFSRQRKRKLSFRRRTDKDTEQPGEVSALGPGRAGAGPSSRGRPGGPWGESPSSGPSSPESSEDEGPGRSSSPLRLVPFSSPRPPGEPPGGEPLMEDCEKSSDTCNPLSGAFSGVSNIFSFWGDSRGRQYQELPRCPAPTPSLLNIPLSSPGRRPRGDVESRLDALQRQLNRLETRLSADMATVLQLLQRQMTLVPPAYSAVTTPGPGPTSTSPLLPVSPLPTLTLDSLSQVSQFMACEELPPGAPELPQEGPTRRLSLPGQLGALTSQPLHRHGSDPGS

[7] = Unbound Cmax in Sprague-Dawley rat at 3.5 mg/kg, iv administered via bolus followed by 6.0 mg/kg, iv administered via infusion for 3 hrs and measured 1 hrs post washout by LC-MS/MS analysis; format: ADME, organism-based; conditions: in vivo
[8] = target: T2, Relaxin receptor 1 (Rattus norvegicus) (UniProt Q6R6I6); experiment: Agonist activity at rat RXFP1 expressed in T-Rex-CHO-K1 cells assessed as stimulation of cAMP production by measuring maximal efficacy incubated for 60 mins by HTRF assay relative to control; format: functional, cell-based; conditions: filed as agonist
T2 sequence (whole entry): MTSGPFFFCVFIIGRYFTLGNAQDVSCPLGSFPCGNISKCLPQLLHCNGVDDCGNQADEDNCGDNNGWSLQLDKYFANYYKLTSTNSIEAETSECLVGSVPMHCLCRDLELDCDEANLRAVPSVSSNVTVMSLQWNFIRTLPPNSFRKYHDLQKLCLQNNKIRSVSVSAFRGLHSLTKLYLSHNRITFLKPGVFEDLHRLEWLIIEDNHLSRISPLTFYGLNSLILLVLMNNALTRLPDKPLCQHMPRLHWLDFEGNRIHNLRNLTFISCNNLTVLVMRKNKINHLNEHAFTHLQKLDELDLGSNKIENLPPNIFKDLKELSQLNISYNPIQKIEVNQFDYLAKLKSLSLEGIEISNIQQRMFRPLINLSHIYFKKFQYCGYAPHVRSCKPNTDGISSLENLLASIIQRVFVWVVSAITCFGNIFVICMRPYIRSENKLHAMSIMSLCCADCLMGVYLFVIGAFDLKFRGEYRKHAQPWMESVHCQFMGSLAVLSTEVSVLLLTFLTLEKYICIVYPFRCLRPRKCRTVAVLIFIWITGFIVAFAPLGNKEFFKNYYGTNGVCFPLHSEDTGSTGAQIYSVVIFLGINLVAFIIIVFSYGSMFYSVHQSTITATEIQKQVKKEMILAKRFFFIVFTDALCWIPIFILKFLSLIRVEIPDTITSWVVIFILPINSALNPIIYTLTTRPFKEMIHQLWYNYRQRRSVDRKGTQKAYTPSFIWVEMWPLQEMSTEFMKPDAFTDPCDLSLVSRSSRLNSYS

[9] = Clearance in Han Wistar rat at 0.73 micromol/kg, iv by LC-MS/MS analysis; format: ADME, organism-based; conditions: in vivo, dose 0.73 µmol/kg
[10] = Lipophilicity, logD of the compound in 1-octanol and phosphate buffer at pH 7.4 incubated for 3 hrs by shake flask method based LC/MS/MS analysis; format: physicochemical; conditions: 1-octanol/phosphate buffer, pH 7.4
[11] = target: T2, Relaxin receptor 1 (Rattus norvegicus); experiment: In vivo agonist activity at RXFP1 in Sprague-Dawley rat assessed as hemodynamic effect by measuring increase in heart rate at 3.5 mg/kg, iv administered via bolus followed by 6.0 mg/kg, iv administered via infusion for 3 hrs and measured 1 hrs post washout; format: functional, organism-based
Relaxin receptor 1 [12] = target: T3, Relaxin receptor 1 (Rattus norvegicus, UniProt Q6R6I6); experiment: Agonist activity at rat RXFP1 expressed in T-Rex-CHO-K1 cells assessed as stimulation of cAMP production incubated for 60 mins by HTRF assay; format: functional, cell-based
T3 sequence (Q6R6I6 whole entry): T2 sequence (whole entry)

[13] = target: T2, Relaxin receptor 1 (Rattus norvegicus); experiment: In vivo agonist activity at RXFP1 in Sprague-Dawley rat assessed as hemodynamic effect by measuring increase in blood pressure at 3.5 mg/kg, iv administered via bolus followed by 6.0 mg/kg, iv administered via infusion for 3 hrs and measured 1 hrs post washout; format: functional, organism-based
[14] = Cytotoxicity against human HepG2 cells cultured under glucose condition assessed as reduction in cell viability; format: toxicity, cell-based
Relaxin receptor 1 [15] = target: T4, Relaxin receptor 1 (Homo sapiens, UniProt Q9HBX9); experiment: Agonist activity at human RXFP1 expressed in T-Rex-CHO-K1 cells assessed as stimulation of cAMP production incubated for 45 mins by HTRF assay; format: functional, cell-based
T4 sequence (Q9HBX9 whole entry): T1 sequence (whole entry)

[16] = Cytotoxicity against human THP-1 cells assessed as reduction of cell viability incubated for 48 hrs by resazurin reduction assay; format: toxicity, cell-based
[17] = Metabolic stability in Han Wistar rat hepatocytes assessed as unbound intrinsic clearance measured […] at 1 uM after 120 mins by LC-MS/MS analysis; format: ADME, cell-based, Hepatocyte; conditions: 2 h
[18] = Protein binding in rat plasma assessed as free fraction at 5 uM incubated for 18 hrs by equilibrium dialysis based LC-MS/MS analysis; format: ADME, cell-free
[19] = Metabolic stability in cryopreserved human hepatocytes assessed as unbound intrinsic clearance measured per 10^6 cells at 1 uM measured after 120 mins by LC-MS/MS analysis; format: ADME, cell-based, Hepatocyte; conditions: 2 h
[20] = Volume of distribution at steady state in Han Wistar rat at 0.73 micromol/kg, iv by LC-MS/MS analysis; format: ADME, organism-based; conditions: in vivo, dose 0.73 µmol/kg, read-out: Vdss
[21] = Metabolic stability in cryopreserved human hepatocytes assessed as intrinsic clearance measured per 10^6 cells at 1 uM after 120 mins by LC-MS/MS analysis; format: ADME, cell-based, Hepatocyte; conditions: for hepatocyte CLint at 1 µM: cryopreserved hepatocytes, read-out: CLH
[22] = Metabolic stability in human liver microsomes assessed as unbound intrinsic clearance at 1 uM incubated for 30 mins in presence of NADPH by LC-MS/MS analysis; format: ADME, Microsome; conditions: 0.5 h
[23] = Volume of distribution at steady state in Han Wistar rat at 0.99 micromol/kg, iv by LC-MS/MS analysis; format: ADME, organism-based; conditions: in vivo, dose 0.99 µmol/kg, read-out: Vdss
[24] = Oral bioavailability in Han Wistar rat at 2.0 micromol/kg by LC-MS/MS analysis; format: ADME, organism-based; conditions: in vivo, 2 µmol/kg
[25] = Kinetic solubility of compound at pH 7.4 incubated for 24 hrs by shake-flask method based LC-MS/MS analysis; format: physicochemical; conditions: buffer, read-out: Kinetic_solubility
[26] = Clearance in Han Wistar rat at 0.99 micromol/kg, iv by LC-MS/MS analysis; format: ADME, organism-based; conditions: in vivo, dose 0.99 µmol/kg
[27] = Metabolic stability in human liver microsomes assessed as intrinsic clearance at 1 uM incubated for 30 mins in presence of NADPH by LC-MS/MS analysis; format: ADME, Microsome; conditions: liver microsomes, read-out: CLH
[28] = Metabolic stability in human liver microsomes assessed as unbound fraction at 1 uM incubated for 4 hrs by equilibrium dialysis based LC-MS/MS analysis; format: ADME, Microsome
[29] = Metabolic stability in rat hepatocytes assessed as unbound fraction at 1 uM incubated for 4 hrs by equilibrium dialysis based LC-MS/MS analysis; format: ADME, cell-based, Hepatocyte
[30] = Half-life in Han Wistar rat at 0.99 micromol/kg, iv by LC-MS/MS analysis; format: ADME, organism-based; conditions: in vivo, dose 0.99 µmol/kg
[31] = target: T2, Relaxin receptor 1 (Rattus norvegicus); experiment: Agonist activity at rat RXFP1 expressed in T-Rex-CHO-K1 cells assessed as stimulation of cAMP production at 40 uM incubated for 45 mins by HTRF assay; format: functional, cell-based
[32] = Volume of distribution at steady state in Han Wistar rat at 0.76 micromol/kg, iv by LC-MS/MS analysis; format: ADME, organism-based; conditions: in vivo, dose 0.76 µmol/kg, read-out: Vdss
[33] = Clearance in Han Wistar rat at 0.76 micromol/kg, iv by LC-MS/MS analysis; format: ADME, organism-based; conditions: in vivo, dose 0.76 µmol/kg
[34] = Metabolic stability in Han Wistar rat hepatocytes assessed as unbound intrinsic clearance measured per 10^6 cells at 1 uM after 120 mins by LC-MS/MS analysis; format: ADME, cell-based, Hepatocyte; conditions: 2 h
[35] = Half-life in Han Wistar rat at 0.76 micromol/kg, iv by LC-MS/MS analysis; format: ADME, organism-based; conditions: in vivo, dose 0.76 µmol/kg
[36] = Oral bioavailability in Han Wistar rat at 1.52 micromol/kg by LC-MS/MS analysis; format: ADME, organism-based; conditions: in vivo, 1.52 µmol/kg

Emax [2]: 103%
hepatocyte CLint at 1 µM [3]: 14 µL/min/1e6 cells
half-life [4]: 2.3 h
fCmax [7]: 12 nM
Emax [8]: 128%
clearance [9]: 14 mL/min/kg
logD at 3 h [10]: 4.5
EC50 (Relaxin receptor 1 [12]): 7.94 µM
EC50 (Relaxin receptor 1 [15]): 3.98 µM
CL free [17]: 2 µL/min
fraction unbound at 18 h, 5 µM [18]: 0.0013
CL free [19]: 7 10^3uL/min
Vd [20]: 1.5 L/kg
CLH ([21]; hepatocytes, 2 h, 1 µM): 49 µL/min/1e6 cells
Compound: COc1cc(F)c(O[C@H]2CC[C@@](C)(C(=O)O)CC2)cc1C(=O)N[C@H]1[C@@H]2CC[C@@H](C2)[C@H]1C(=O)Nc1ccc(F)c(S(F)(F)(F)(F)F)c1
IC50 [1]: 34 µM
IC50 (Bile salt export pump): 97 µM
IC50 [5]: 122 µM
IC50 [6]: 33 µM
Activity [11]: inactive
Activity [13]: inactive
IC50 [14]: 134 µM
IC50 at 48 h [16]: 11 µM

CL free [22]: 37 10^3uL/min/mg
Vd [23]: 7.7 L/kg
hepatocyte CLint at 1 µM [3]: 22 µL/min/1e6 cells
bioavailability [24]: 40%
solubility kinetic at 24 h [25]: 1 µM (≈ 0.507 µg/mL)
clearance [26]: 30 mL/min/kg
microsomal CLint at 1 µM [27]: 55 µL/min/mg
fraction unbound at 4 h, 1 µM [28]: 2e-05
logD at 3 h [10]: > 4
CL free [17]: 5.4 µL/min
fraction unbound at 4 h, 1 µM [29]: 4e-05
half-life [30]: 4.3 h
fraction unbound at 18 h, 5 µM [18]: < 0.0002
CL free [19]: 3.07 10^3uL/min
hepatocyte CLint at 1 µM [21]: 12.6 µL/min/1e6 cells
Activity [31]: inactive
Compound: CC(C)Oc1ccccc1C(=O)Nc1ccccc1C(=O)Nc1cccc(S(=O)(=O)C(F)(F)F)c1

Emax [2]: 102%
hepatocyte CLint at 1 µM [3]: 23 µL/min/1e6 cells
Emax [8]: 43%
Vd [32]: 1.7 L/kg
logD at 3 h [10]: 3.5
clearance [33]: 76 mL/min/kg
EC50 (Relaxin receptor 1 [12]): 10 µM
EC50 (Relaxin receptor 1 [15]): 0.0398 µM
CL free [34]: 397 µL/min
fraction unbound at 18 h, 5 µM [18]: 0.011
CL free [19]: 259 µL/min
half-life [35]: 1.2 h
bioavailability [36]: 2.6%
hepatocyte CLint at 1 µM [21]: 15 µL/min/1e6 cells
Compound: COc1cc(F)c(O[C@H]2CC[C@@H](C(=O)O)CC2)cc1C(=O)N[C@@H]1[C@H]2CC[C@H](C2)[C@@H]1C(=O)Nc1cccc(S(=O)(=O)C(F)(F)F)c1
